Results reported in patent publication US20250346582A1, “SPLEEN TYROSINE KINASE INHIBITORS AND METHODS OF USE THEREOF” (THE BOARD OF TRUSTEES OF THE UNIVERSITY OF ILLINOIS, priority 2022, published 2025).

Columns and labels:
[1] = target: T1, Syk-cSH2 (Homo sapiens, UniProt P43405); test: Fluorescence quenching vesicle binding assay, Syk-cSH2; details: for IC50: read-out: IC50
T1 construct: polyhistidine (N); made in house; host or cells: Escherichia coli BL21 (DE3) pLysS
Experimental: (§1) The membrane-binding assay is based on fluorescence quenching of EGFP fused to a SH2 domain by a dark quencher containing lipid, dabsyl-PE, incorporated in lipid vesicles. The plate reader assay was performed using the Synergy™ Neo spectrofluorometer at 25° C. Nontreated black polystyrene 96-well plates (Corning) were used. Protein (10-50 nM) with the increasing concentration of vesicles with a given lipid composition in 20 mM Tris buffer, pH 7.4, containing 0.16 M NaCl was added to each row of wells and the EGFP fluorescence emission at 516 nm was measured with excitation set at 485 nm. Z′ factor for the assay system was determined as described^74. Imax and IC50 values of inhibitors were determined using the equation, I=Imax/(1+IC50/[I]) where I and [I] indicate % inhibition and inhibitor concentration, respectively. The average and standard deviation values were obtained from triplicate determinations.
(§2) We also optimized a recently developed fluorescence quenching-based lipid-binding assay^47 for high-throughput screening of these molecules for their inhibitory activity against the PIP3-SH2 interaction. Specifically, we expressed SH2 domains as EGFP-tagged proteins and directly quantified their membrane binding by monitoring the quenching of EGFP fluorescence emission intensity by a dark quencher-containing lipid, N-dimethylaminoazo-benzenesulfonyl-phosphatidylethanolamine (dabsyl-PE), incorporated in the vesicles. We then screened for compounds that inhibited binding of Syk-cSH2, BLNK-SH2, and PLCγ2-cSH2, respectively, to 1-palmitoyl-2-oleoyl-PC (POPC)/1-palmitoyl-2-oleoyl-PS (POPS)/PIP3/dabsyl-PE (67:20:3:10) vesicles while eliminating those that inhibit their non-specific binding to anionic POPC/POPS/dabsyl-PE (70:20:10) vesicles. The quality of the screening system was evaluated using 1% dimethylsulfoxide (DMSO) and 20 μM D-myo-inositol-1,3,4,5-tetraphosphate (IP4) as negative and positive controls, respectively. The clear separation of positive and negative control data and the average Z′-factor of 0.7 supported the robustness of our system for high-throughput screen of PIP3-SH2 interaction inhibitors.

[2] = target: T2, PLCγ2-cSH2 (Homo sapiens, UniProt P16885); test: Fluorescence quenching vesicle binding assay, PLCγ2-cSH2; details: Table 4; POPC/POPS/PIP3/dabsyl-PE (67:20:3:10) vesicles (40 μM); read-out: Imax (%)
T2 construct: polyhistidine (N); made in house; host or cells: Escherichia coli BL21 (DE3) pLysS
T2 sequence (P16885 646-735 limits assumed): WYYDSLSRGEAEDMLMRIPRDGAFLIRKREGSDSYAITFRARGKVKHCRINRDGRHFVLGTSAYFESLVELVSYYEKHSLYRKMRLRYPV
Experimental: as §1, §2

[3] = target: T3, ZAP70-cSH2 (Homo sapiens, UniProt P43403); test: Fluorescence quenching vesicle binding assay, ZAP70-cSH2; details: for Emax: read-out: Imax (%); for inhibition of ZAP-70-cSH2 binding to POPC/POPS/PIP3/dabsyl-PE vesicles: in words
T3 construct: polyhistidine (N); made in house; host or cells: Escherichia coli BL21 (DE3) pLysS
T3 sequence (P43403 163-254 limits assumed): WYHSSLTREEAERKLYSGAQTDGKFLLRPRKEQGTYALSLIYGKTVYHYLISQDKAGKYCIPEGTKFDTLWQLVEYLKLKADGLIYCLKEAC
Experimental: as §1, §2

[4] = target: T4, pSyk (Homo sapiens, UniProt P43405); test: Western blot inhibition of Syk phosphorylation in Raji B cells; assay type: cell-based; details: Immunoblotting, Western blot assay in Raji B cells
T4 construct: endogenous in cells; host or cells: Raji B cells, IgM-stimulated
Experimental: (a) Cellular efficacy of WC35, WC36, and WC38 was determined by dose-dependent inhibition of Syk phosphorylation in Raji B cells. (b) Imax and IC50 values were determined by non-linear least-squares analysis of data using the equation: […] Each data represents average ±s.d. from triplicate measurements. […] Jurkat T cells were stimulated by OKT3. Cells were seeded at a density of 3.0×10^5 cells/well prior to incubation with inhibitors. […] IgG2 for AML cells, IgM for Raji B cells, and OKT3 (Biolegend) for Jurkat cells. […] Samples were analyzed by SDS-PAGE. Proteins were separated and transferred to Immobilon-P polyvinylidene difluoride membrane (Millipore Sigma). […] The chemiluminescence intensity of protein bands in the gel was analyzed and documented by the Azure […] Imaging System.

[5] = test system: BCR signaling axis (Syk-BLNK-PLCγ2); test: Western blot of BCR signaling axis in Raji B lymphocytes; assay type: cell-based; details: Raji B cells
Experimental: (§3) Cells were seeded at a density of 3.0×10^5 cells/well prior to incubation with inhibitors. Cells were incubated with 1-5 μM of Syk inhibitors overnight and stimulated with different antibodies: IgG2 for AML cells, IgM for Raji B cells, and OKT3 (Biolegend) for Jurkat cells. The cells were lysed in NP40 lysis buffer (50 mM Tris, pH 7.5, 150 mM NaCl, 1 mM EDTA, 1% NP40, 10% glycerol, 10 mM NaF, 10 mM Na3VO4, and the protease inhibitor cocktail) at 4° C. and the cell debris was removed by centrifugation. Samples were analyzed by SDS-PAGE. Proteins were separated and transferred to Immobilon-P polyvinylidene difluoride membrane (Millipore Sigma). The membrane was blocked with 5% bovine serum albumin for 1 h and incubated overnight at 4° C. with various antibodies (1:1000 dilution for all antibodies). After the unbound antibodies were removed by washing with 0.1% Tris buffer saline with 0.1% Tween20, the membranes were incubated with the horseradish peroxidase secondary antibody (1:5000 dilution) for 1 h at room temperature. The membranes were washed three more times with 0.1% Tris buffer saline with 0.1% Tween20 to remove the unbound horseradish peroxidase secondary antibody before imaging. The chemiluminescence intensity of protein bands in the gel was analyzed and documented by the Azure 500Q Imaging System.

[6] = test system: phosphorylation of Syk, ERK1/2 and STAT3/5; test: Western blot of phosphorylation in entospletinib-resistant MV4-11 cells; assay type: cell-based; details: 5 μM
Experimental: as §3
Then the concentration was maintained at 5 μM.

[7] = Table 3, efficacy determined by the vesicle binding assay
[8] = Table 4, POPC/POPS/PIP3/dabsyl-PE (67:20:3:10) vesicles (40 μM)

| SMILES | Imax (%) [1, 7] | IC50 [1, 7] [nM] | Imax (%) [1, 8] [%] | Emax [2] [%] | Emax [3, 8] [%] | inhibition of ZAP-70-cSH2 binding to POPC/POPS/PIP3/dabsyl-PE vesicles [3] | IC50 [4] [nM] | Imax (%) [4] [%] | effect on phosphorylation of BCR signaling proteins (Syk, BLNK, PLCγ2) [5] | inhibition of phosphorylation of Syk, ERK1/2 and STAT3/5 [6] | IC50 [3, 8] [nM] |
| --- | --- | --- | --- | --- | --- | --- | --- | --- | --- | --- | --- |
| [N-]=[N+]=C(C(=O)OC1CCCCC1)C(Nc1ncccn1)c1ccco1 (racemic) [WC35, Cyclohexyl 2-diazo-3-(furan-2-yl)-3-(pyrimidin-2-ylamino)propanoate] | Imax (%) = 50 | 150 | 50 ± 5 | < 10 | < 20 | did not inhibit binding | 180 ± 50 | 58 ± 5 | effectively suppressed phosphorylation of all BCR signaling proteins | significantly less active than WC36 | – |
| [N-]=[N+]=C(C(=O)OC1CCCCC1)C(Nc1ncccn1)c1c[nH]c2ccccc12 (racemic) [WC36, Cyclohexyl 2-diazo-3-(1H-indol-3-yl)-3-(pyrimidin-2-ylamino)propanoate] | Imax (%) = 60 | 40 | 60 ± 5 | < 10 | < 10 | did not inhibit binding | 52 ± 10 | 67 ± 5 | effectively suppressed phosphorylation of all BCR signaling proteins | potently suppressed the phosphorylation and activation of Syk, ERK1/2, and STAT3/5 | – |
| [N-]=[N+]=C(C(=O)OC1CCCCC1)C(Nc1ncccn1)c1ccc[nH]1 (racemic) [WC38, Cyclohexyl 2-diazo-3-(pyrimidin-2-ylamino)-3-(1H-pyrrol-2-yl)propanoate] | Imax (%) = 70 | 120 | 70 ± 5 | < 10 | 30 ± 5 | did not inhibit binding | 180 ± 30 | 65 ± 3 | effectively suppressed phosphorylation of all BCR signaling proteins | significantly less active than WC36 | 340 ± 20 |
